In patent US20090186929A1, “Method and agent for inducing apoptosis/cell death in leukemia cells” (U.S. DEPARTMENT OF VETERANS AFFAIRS, priority 2003, published 2009):

Legend:
CLL cells [1] = assay: CLL cell apoptosis (TUNEL assay); assay type: cell-based, human; conditions: CLL cells in vitro
Method: Culture of cells with IL-4 or IFN-γ (but not TNF-α, IL-2, IL-6, IL-8, G-CSF, nerve growth factor, or IFN-α) increased NO production. By quantitative RT-PCR, IL-4 increased NOS2 mRNA (FIG. 8). Also, 5 of 5 patients' CLL cells had increases in NOS2 protein (immunoblot) after in vitro treatment with IL-4. Apoptosis (TUNEL assay) was induced by NMMA treatment of the cells, and incubating cells with IL-4 or IFN-y reduced apoptosis. […] Since IL-4 and IFN-gamma induce NOS2 and modulate CD38 expression in CLL cells in vitro, we sought to determine if CLL patients had elevated levels of these cytokines and if the levels related to CD38 expression by the leukemia cells (Reference 87).

[2] = normals, trials for septic shock and migraine; cited from earlier work
CLL cells [3] = assay: Cytotoxicity of NOS inhibitors for CLL cells in vitro (MTS assay); conditions: cytotoxicity for CLL cells in vitro
Source text: We worked to optimize the culture of CLL cells (Reference 86). […] These were all tested with and without albumin, fetal bovine serum, human serum, glutamine, insulin, transferrin, selenium, and mercaptoethanol.
Toxicity could be detected by disappearance of cells from the culture (reduction in overall cell number), uptake of trypan blue, propidium iodide uptake (flow cytometry), MTS (4,5-dimethylthiazol-2-yl)-5-(3-carboxymethoxyphenyl)-2-(4-sulfophenyl)-2H-tetrazolium, inner salt) assay (cellular respiration), and several parameters of apoptosis [annexin V assay, DNA content […], and TUNEL assay].

[4] = target: T1, purified recombinant human NOS2 oxygenase domain (Homo sapiens, UniProt P35228); assay: NOS inhibitor binding (Kd) to NOS2
T1 construct: purified recombinant human NOS2 oxygenase domain
Method: […] The cLogP value for each NOS inhibitor was determined using the CLOGP computer program (BioByte, Claremont, Calif.). […] Linear regression was used to examine the correlation between the IC50, Kd and cLogP values and ED50 values.
We determined the dissociation constant for NOS inhibitor binding (Kd) to purified recombinant and NOS2.

CLL cells [5] = assay: Cytotoxicity of NOS inhibitors for CLL cells in vitro (PI exclusion assay); assay type: cell-based; conditions: Homo sapiens, CLL cell, read-out: Mean ED50 ± S.E.M. (CLL cell cytotoxicity)
Source text: Toxicity could be detected by disappearance of cells from the culture (reduction in overall cell number), uptake of trypan blue, propidium iodide uptake (flow cytometry), MTS (4,5-dimethylthiazol-2-yl)-5-(3-carboxymethoxyphenyl)-2-(4-sulfophenyl)-2H-tetrazolium, inner salt) assay (cellular respiration), and several parameters of apoptosis [annexin V assay, DNA content (<in), and TUNEL assay].

[6] = target: T2, purified recombinant rat NOS1 oxygenase domain (Rattus norvegicus, UniProt P29476); assay: NOS inhibitor binding (Kd) to NOS1
T2 construct: purified recombinant rat NOS1 oxygenase domain
T2 sequence (P29476 1-720 limits assumed): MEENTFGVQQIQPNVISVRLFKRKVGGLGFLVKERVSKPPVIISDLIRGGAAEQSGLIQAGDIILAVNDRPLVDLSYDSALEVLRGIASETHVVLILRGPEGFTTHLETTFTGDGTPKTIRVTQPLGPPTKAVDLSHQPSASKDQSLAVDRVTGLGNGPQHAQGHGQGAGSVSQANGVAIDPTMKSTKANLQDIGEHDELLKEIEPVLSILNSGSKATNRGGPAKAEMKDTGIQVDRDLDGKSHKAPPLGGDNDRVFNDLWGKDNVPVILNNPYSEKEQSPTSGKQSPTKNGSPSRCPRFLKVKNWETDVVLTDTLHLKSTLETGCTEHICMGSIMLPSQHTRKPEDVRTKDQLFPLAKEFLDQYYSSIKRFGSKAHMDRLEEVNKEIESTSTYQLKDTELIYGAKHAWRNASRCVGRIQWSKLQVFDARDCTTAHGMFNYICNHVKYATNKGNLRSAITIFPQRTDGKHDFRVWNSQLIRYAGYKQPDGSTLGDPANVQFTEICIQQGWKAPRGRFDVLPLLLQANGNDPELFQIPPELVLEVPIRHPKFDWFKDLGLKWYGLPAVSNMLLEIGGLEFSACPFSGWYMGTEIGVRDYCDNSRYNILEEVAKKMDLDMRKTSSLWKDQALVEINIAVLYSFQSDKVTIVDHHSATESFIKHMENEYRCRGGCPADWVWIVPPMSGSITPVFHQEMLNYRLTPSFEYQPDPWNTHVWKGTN

T1 sequence (P35228 1-504 limits assumed): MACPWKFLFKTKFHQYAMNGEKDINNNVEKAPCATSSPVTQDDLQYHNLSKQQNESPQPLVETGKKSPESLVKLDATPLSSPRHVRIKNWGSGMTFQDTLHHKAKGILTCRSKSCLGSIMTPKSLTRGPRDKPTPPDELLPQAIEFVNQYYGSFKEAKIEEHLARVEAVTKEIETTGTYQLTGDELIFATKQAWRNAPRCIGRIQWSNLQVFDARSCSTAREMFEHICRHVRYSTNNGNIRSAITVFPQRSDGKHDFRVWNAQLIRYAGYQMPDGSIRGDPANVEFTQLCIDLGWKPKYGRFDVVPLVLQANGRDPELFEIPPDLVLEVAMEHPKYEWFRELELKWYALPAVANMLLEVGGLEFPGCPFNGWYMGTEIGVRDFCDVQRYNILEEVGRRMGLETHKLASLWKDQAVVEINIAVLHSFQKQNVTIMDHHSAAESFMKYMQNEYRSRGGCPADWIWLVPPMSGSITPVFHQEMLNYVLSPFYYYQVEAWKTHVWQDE

Compound	Apoptosis (TUNEL assay) (CLL cells [1])	Effects on cardiovascular, liver, or hematopoietic function [2]	ED50 ranking, FIG. 10 (CLL cells [3])	Kd [4]	EC50 (CLL cells [5])	Kd [6]
CC(=O)O.CNC(=N)NCCC[C@H](N)C(=O)O [L-NMMA, N^G-Monomethyl-L-arginine monoacetate]	induced	no major effects	very high ED50	–	–	–
C=CCC(=N)NCCC[C@H](N)C(=O)O [Vinyl-L-NIO, N^5-(1-Imino-3-butenyl)-L-ornithine]	–	–	–	0.5 µM	1190 ± 456 µM	0.1 µM
